Measured values: publication PMC12090182, “Repurposing of the RIPK1-Selective Benzo[1,4]oxazepin-4-one Scaffold for the Development of a Type III LIMK1/2 Inhibitor” (ACS Chemical Biology, 2025)
Where two headings read alike, the source gives them in different places.

System: U2OS cells
Format: cell-based
Details: U2OS
Method: To assess the influence on cell health, a high-content screening in living cells called the multiplex high-content assay, as described previously by Tjaden et al., was performed.[38] In brief, HEK293T (ATCC CRL-1573) and U2OS (ATCCHTB-96) were cultured in DMEM plus L-glutamine (high glucose) supplemented by 10% FBS (Gibco) and penicillin/streptomycin (Gibco). MRC-9 fibroblasts ([…]) were cultured in EMEM plus L-glutamine supplemented by 10% FBS (Gibco) and penicillin/streptomycin (Gibco). Cells were seeded at a density of 1250 cells per well in a 384-well plate in a culture medium (cell culture microplate, PS, f-bottom, μClear, 781091, Greiner), with a volume of 50 μL per well. All outer wells were filled with 100 μL of PBS buffer (Gibco). […] The cell shape and fluorescence were measured before treatment and 12, 24, and 48 h after compound treatment using the CQ1 high-content confocal microscope (Yokogawa, Musashino, Japan). […] The compounds were tested at 1 and 10 μM, respectively. Acquired images of the cells were processed using Yokogawa CellPathfinder software (v3.04.02.02). […] Results were normalized to cells exposed to 0.1% DMSO. All compounds were tested in biological duplicates, and SEM (standard error of mean) was calculated of biological duplicates.

[1] = 1 µM, 0 h, biological replicate 1
[2] = 1 µM, 0 h, biological replicate 2
[3] = 1 µM, 12 h, biological replicate 1
[4] = 1 µM, 12 h, biological replicate 2
[5] = 1 µM, 24 h, biological replicate 1
[6] = 1 µM, 24 h, biological replicate 2
[7] = 1 µM, 48 h, biological replicate 1
[8] = 1 µM, 48 h, biological replicate 2
[9] = 10 µM, 0 h, biological replicate 1
[10] = 10 µM, 0 h, biological replicate 2
[11] = 10 µM, 12 h, biological replicate 1
[12] = 10 µM, 12 h, biological replicate 2
[13] = 10 µM, 24 h, biological replicate 1
[14] = 10 µM, 24 h, biological replicate 2
[15] = 10 µM, 48 h, biological replicate 1
[16] = 10 µM, 48 h, biological replicate 2

## CC(C)C(=O)Nc1ncc(-c2cc(C(F)F)nn2-c2c(Cl)cccc2Cl)s1 [LIMKi3]
[1]
  Cell count normalized to cells treated with DMSO control: 1.067
  Cell count per well: 222
  Population Fragmented Nuclei (%): 50.47%
  Population Healthy Nuclei (%): 44.34%
  Population Pyknosed Nuclei (%): 5.19%
  Population apoptotic cell (%): 81.82%
  Population cell that influence microtubule strucutre (%): 3.19%
  Population with increased mitochondrial mass (%): 4.26%
  Population with membrane disruption (%): 8.51%
[2]
  Cell count normalized to cells treated with DMSO control: 1.097
  Cell count per well: 94
  Population Fragmented Nuclei (%): 27.47%
  Population Healthy Nuclei (%): 63.74%
  Population Pyknosed Nuclei (%): 8.79%
  Population apoptotic cell (%): 100.00%
  Population cell that influence microtubule strucutre (%): 5.17%
  Population with increased mitochondrial mass (%): 1.72%
  Population with membrane disruption (%): 5.17%
[3]
  Cell count normalized to cells treated with DMSO control: 0.9868
  Cell count per well: 261
  Population Fragmented Nuclei (%): 35.71%
  Population Healthy Nuclei (%): 57.94%
  Population Pyknosed Nuclei (%): 6.35%
  Population apoptotic cell (%): 81.25%
  Population cell that influence microtubule strucutre (%): 3.42%
  Population with increased mitochondrial mass (%): 2.05%
  Population with membrane disruption (%): 6.85%
[4]
  Cell count normalized to cells treated with DMSO control: 1.091
  Cell count per well: 129
  Population Fragmented Nuclei (%): 18.25%
  Population Healthy Nuclei (%): 76.98%
  Population Pyknosed Nuclei (%): 4.76%
  Population apoptotic cell (%): 100.00%
  Population cell that influence microtubule strucutre (%): 4.12%
  Population with increased mitochondrial mass (%): 4.12%
  Population with membrane disruption (%): 5.15%
[5]
  Cell count normalized to cells treated with DMSO control: 0.9303
  Cell count per well: 290
  Population Fragmented Nuclei (%): 30.77%
  Population Healthy Nuclei (%): 62.24%
  Population Pyknosed Nuclei (%): 6.99%
  Population apoptotic cell (%): 80.00%
  Population cell that influence microtubule strucutre (%): 2.25%
  Population with increased mitochondrial mass (%): 3.37%
  Population with membrane disruption (%): 5.06%
[6]
  Cell count normalized to cells treated with DMSO control: 1.125
  Cell count per well: 160
  Population Fragmented Nuclei (%): 21.52%
  Population Healthy Nuclei (%): 67.72%
  Population Pyknosed Nuclei (%): 10.76%
  Population apoptotic cell (%): 70.59%
  Population cell that influence microtubule strucutre (%): 1.87%
  Population with increased mitochondrial mass (%): 2.80%
  Population with membrane disruption (%): 4.67%
[7]
  Cell count normalized to cells treated with DMSO control: 0.8403
  Cell count per well: 374
  Population Fragmented Nuclei (%): 26.78%
  Population Healthy Nuclei (%): 61.48%
  Population Pyknosed Nuclei (%): 11.75%
  Population apoptotic cell (%): 86.05%
  Population cell that influence microtubule strucutre (%): 4.44%
  Population with increased mitochondrial mass (%): 2.67%
  Population with membrane disruption (%): 6.22%
[8]
  Cell count normalized to cells treated with DMSO control: 0.9779
  Cell count per well: 202
  Population Fragmented Nuclei (%): 17.50%
  Population Healthy Nuclei (%): 70.50%
  Population Pyknosed Nuclei (%): 12.00%
  Population apoptotic cell (%): 87.50%
  Population cell that influence microtubule strucutre (%): 4.26%
  Population with increased mitochondrial mass (%): 2.13%
  Population with membrane disruption (%): 6.38%
[9]
  Cell count normalized to cells treated with DMSO control: 1.081
  Cell count per well: 225
  Population Fragmented Nuclei (%): 43.12%
  Population Healthy Nuclei (%): 50.46%
  Population Pyknosed Nuclei (%): 6.42%
  Population apoptotic cell (%): 78.57%
  Population cell that influence microtubule strucutre (%): 4.55%
  Population with increased mitochondrial mass (%): 3.64%
  Population with membrane disruption (%): 7.27%
[10]
  Cell count normalized to cells treated with DMSO control: 1.132
  Cell count per well: 97
  Population Fragmented Nuclei (%): 17.53%
  Population Healthy Nuclei (%): 71.13%
  Population Pyknosed Nuclei (%): 11.34%
  Population apoptotic cell (%): 90.91%
  Population cell that influence microtubule strucutre (%): 5.80%
  Population with increased mitochondrial mass (%): 10.14%
  Population with membrane disruption (%): 5.80%
[11]
  Cell count normalized to cells treated with DMSO control: 0.8507
  Cell count per well: 225
  Population Fragmented Nuclei (%): 35.24%
  Population Healthy Nuclei (%): 45.24%
  Population Pyknosed Nuclei (%): 19.52%
  Population apoptotic cell (%): 63.41%
  Population cell that influence microtubule strucutre (%): 84.21%
  Population with increased mitochondrial mass (%): 51.58%
  Population with membrane disruption (%): 77.89%
[12]
  Cell count normalized to cells treated with DMSO control: 0.9469
  Cell count per well: 112
  Population Fragmented Nuclei (%): 12.15%
  Population Healthy Nuclei (%): 68.22%
  Population Pyknosed Nuclei (%): 19.63%
  Population apoptotic cell (%): 57.14%
  Population cell that influence microtubule strucutre (%): 86.30%
  Population with increased mitochondrial mass (%): 68.49%
  Population with membrane disruption (%): 67.12%
[13]
  Cell count normalized to cells treated with DMSO control: 0.7058
  Cell count per well: 220
  Population Fragmented Nuclei (%): 35.92%
  Population Healthy Nuclei (%): 37.86%
  Population Pyknosed Nuclei (%): 26.21%
  Population apoptotic cell (%): 55.56%
  Population cell that influence microtubule strucutre (%): 78.21%
  Population with increased mitochondrial mass (%): 65.38%
  Population with membrane disruption (%): 65.38%
[14]
  Cell count normalized to cells treated with DMSO control: 0.7383
  Cell count per well: 105
  Population Fragmented Nuclei (%): 11.11%
  Population Healthy Nuclei (%): 58.59%
  Population Pyknosed Nuclei (%): 30.30%
  Population apoptotic cell (%): 60.00%
  Population cell that influence microtubule strucutre (%): 75.86%
  Population with increased mitochondrial mass (%): 65.52%
  Population with membrane disruption (%): 53.45%
[15]
  Cell count normalized to cells treated with DMSO control: 0.528
  Cell count per well: 235
  Population Fragmented Nuclei (%): 37.96%
  Population Healthy Nuclei (%): 28.70%
  Population Pyknosed Nuclei (%): 33.33%
  Population apoptotic cell (%): 68.06%
  Population cell that influence microtubule strucutre (%): 77.42%
  Population with increased mitochondrial mass (%): 54.84%
  Population with membrane disruption (%): 80.65%
[16]
  Cell count normalized to cells treated with DMSO control: 0.6342
  Cell count per well: 131
  Population Fragmented Nuclei (%): 20.83%
  Population Healthy Nuclei (%): 49.17%
  Population Pyknosed Nuclei (%): 30.00%
  Population apoptotic cell (%): 77.78%
  Population cell that influence microtubule strucutre (%): 77.97%
  Population with increased mitochondrial mass (%): 54.24%
  Population with membrane disruption (%): 67.80%
